Earlier results in patent US20070105927A1, “Amorphous rizatriptan benzoate” (Glenmark Pharmaceuticals Limited, priority 2005, published 2007).

Experiments:
[1] = in vivo
[2] = tested on: histaminergic receptors
[3] = tested on: dopaminergic receptors
[4] = tested on: 5-HT3 receptors
[5] = target: human cloned 5-HT1D receptors (Homo sapiens, UniProt P28221); conditions: human cloned receptor
[6] = tested on: muscarinic receptors
[7] = target: T1, 5-HTIF receptor subtype (Homo sapiens, UniProt P30939)
T1 sequence (P30939 1-366): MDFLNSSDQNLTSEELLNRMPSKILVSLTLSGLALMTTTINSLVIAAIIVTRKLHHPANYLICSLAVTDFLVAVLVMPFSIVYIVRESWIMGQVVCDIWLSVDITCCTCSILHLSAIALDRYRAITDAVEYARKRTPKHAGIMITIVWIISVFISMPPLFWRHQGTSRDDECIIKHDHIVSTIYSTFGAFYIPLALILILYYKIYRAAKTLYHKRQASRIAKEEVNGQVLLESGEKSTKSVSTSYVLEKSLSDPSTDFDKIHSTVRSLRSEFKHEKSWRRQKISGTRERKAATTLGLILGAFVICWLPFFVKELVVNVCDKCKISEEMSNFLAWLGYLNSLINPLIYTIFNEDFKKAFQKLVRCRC

[8] = target: 5-HT7 receptor (Homo sapiens, UniProt P34969)
Sequence of 5-HT7 receptor (P34969 whole entry): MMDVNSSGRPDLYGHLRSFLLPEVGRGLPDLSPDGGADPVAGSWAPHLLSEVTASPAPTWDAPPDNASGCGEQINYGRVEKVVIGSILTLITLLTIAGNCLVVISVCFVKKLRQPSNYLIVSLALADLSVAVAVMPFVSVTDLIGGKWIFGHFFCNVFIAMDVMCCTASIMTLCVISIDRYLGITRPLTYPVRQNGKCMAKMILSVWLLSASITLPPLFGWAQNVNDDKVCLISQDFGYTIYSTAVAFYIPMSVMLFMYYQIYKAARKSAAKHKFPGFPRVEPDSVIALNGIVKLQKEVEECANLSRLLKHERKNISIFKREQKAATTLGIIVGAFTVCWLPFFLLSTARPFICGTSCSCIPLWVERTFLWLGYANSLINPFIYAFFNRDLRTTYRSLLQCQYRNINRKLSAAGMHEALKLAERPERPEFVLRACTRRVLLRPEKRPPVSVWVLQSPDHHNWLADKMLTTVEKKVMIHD

[9] = tested on: alpha-adrenergic receptors
[10] = target: T2, 5-HT1A receptor subtype (Homo sapiens, UniProt P08908)
T2 sequence (P08908 1-422): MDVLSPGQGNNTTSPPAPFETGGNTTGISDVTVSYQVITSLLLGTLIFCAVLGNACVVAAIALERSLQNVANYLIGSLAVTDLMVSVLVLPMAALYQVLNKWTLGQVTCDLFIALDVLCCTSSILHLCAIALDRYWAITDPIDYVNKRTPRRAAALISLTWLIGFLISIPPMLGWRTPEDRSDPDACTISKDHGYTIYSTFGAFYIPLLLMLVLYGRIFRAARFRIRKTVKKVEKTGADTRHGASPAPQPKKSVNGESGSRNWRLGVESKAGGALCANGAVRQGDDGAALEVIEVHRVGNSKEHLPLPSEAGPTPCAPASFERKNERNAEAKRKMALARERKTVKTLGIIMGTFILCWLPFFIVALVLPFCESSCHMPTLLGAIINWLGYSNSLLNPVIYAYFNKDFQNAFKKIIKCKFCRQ

[11] = tested on: 5-HT2 receptors
[12] = target: 5-HTIE receptor subtype (Homo sapiens, UniProt P28566)
Sequence of 5-HTIE receptor subtype (P28566 whole entry): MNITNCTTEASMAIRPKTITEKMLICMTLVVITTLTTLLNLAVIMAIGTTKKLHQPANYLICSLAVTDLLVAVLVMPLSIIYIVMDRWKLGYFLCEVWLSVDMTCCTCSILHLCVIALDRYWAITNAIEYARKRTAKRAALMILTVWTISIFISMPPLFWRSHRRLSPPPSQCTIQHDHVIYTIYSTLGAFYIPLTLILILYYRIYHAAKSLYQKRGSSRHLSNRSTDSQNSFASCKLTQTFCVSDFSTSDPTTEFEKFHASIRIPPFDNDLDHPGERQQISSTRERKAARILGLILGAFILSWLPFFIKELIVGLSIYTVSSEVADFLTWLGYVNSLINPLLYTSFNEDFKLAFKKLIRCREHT

[13] = tested on: beta-adrenergic receptors
[14] = target: human cloned 5-HT1B receptors (Homo sapiens, UniProt P28222); conditions: human cloned receptor
Sequence of human cloned 5-HT1B receptors (P28222 whole entry): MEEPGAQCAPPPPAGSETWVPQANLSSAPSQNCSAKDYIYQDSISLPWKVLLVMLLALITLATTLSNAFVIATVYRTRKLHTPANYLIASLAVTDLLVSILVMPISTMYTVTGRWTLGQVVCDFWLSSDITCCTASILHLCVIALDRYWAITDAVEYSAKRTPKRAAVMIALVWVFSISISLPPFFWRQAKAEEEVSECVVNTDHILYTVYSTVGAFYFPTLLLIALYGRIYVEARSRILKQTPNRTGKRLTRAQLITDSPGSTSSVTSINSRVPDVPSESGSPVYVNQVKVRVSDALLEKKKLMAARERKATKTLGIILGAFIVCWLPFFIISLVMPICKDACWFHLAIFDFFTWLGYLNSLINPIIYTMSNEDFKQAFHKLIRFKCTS

[15] = tested on: benzodiazepine receptors

Sequence of human cloned 5-HT1D receptors (P28221 whole entry): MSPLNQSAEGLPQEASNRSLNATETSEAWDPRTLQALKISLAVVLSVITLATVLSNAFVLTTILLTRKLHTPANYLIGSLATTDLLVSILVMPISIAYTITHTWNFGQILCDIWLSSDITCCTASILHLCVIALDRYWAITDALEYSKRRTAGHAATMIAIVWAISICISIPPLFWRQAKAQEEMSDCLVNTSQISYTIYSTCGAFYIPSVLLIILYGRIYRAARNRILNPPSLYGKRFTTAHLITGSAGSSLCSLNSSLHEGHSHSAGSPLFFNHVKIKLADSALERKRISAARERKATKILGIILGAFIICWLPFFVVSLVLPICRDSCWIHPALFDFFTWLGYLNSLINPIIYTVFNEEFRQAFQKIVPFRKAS

Row | activity at histaminergic receptors [2] | activity at dopaminergic receptors [3] | activity at 5-HT3 receptors [4] | affinity for 5-HT1D receptors [5] | activity at muscarinic receptors [6] | affinity for 5-HTIF receptor subtype [7] | affinity for 5-HT7 receptor [8] | activity at alpha-adrenergic receptors [9] | affinity for 5-HT1A receptor subtype [10] | activity at 5-HT2 receptors [11] | affinity for 5-HTIE receptor subtype [12] | activity at beta-adrenergic receptors [13] | affinity for 5-HT1B receptors [14] | activity at benzodiazepine receptors [15] | Compound | bioavailability [1]
1 |  |  |  |  |  |  |  |  |  |  |  |  |  |  | CO/N=C(\C(=O)N[C@@H]1C(=O)N2C(C(=O)OC(C)OC(C)=O)=C(COC(N)=O)CS[C@H]12)c1ccco1 (stereo partly drawn) [cefuroxime axietil] | much higher bioavailability than the crystalline forms
2 | no significant activity | no significant activity | no significant activity | high affinity | no significant activity | weak affinity | weak affinity | no significant activity | weak affinity | no significant activity | weak affinity | no significant activity | high affinity | no significant activity | CN(C)CCc1c[nH]c2ccc(Cn3cncn3)cc12 [Rizatriptan] | 
